# Source: PMC10341549, “Inhibitory Investigations of Acyl-CoA Derivatives against Human Lipoxygenase Isozymes” (International Journal of Molecular Sciences, 2023)
# Tests used:
# [1] = molecular target: T1, h15-LOX-1 (Homo sapiens, UniProt P16050); test: Substrate activity and kinetic parameters with h15-LOX-1; format: biochemical
# T1 construct: His tag; made in house
# T1 sequence (P16050 1-662): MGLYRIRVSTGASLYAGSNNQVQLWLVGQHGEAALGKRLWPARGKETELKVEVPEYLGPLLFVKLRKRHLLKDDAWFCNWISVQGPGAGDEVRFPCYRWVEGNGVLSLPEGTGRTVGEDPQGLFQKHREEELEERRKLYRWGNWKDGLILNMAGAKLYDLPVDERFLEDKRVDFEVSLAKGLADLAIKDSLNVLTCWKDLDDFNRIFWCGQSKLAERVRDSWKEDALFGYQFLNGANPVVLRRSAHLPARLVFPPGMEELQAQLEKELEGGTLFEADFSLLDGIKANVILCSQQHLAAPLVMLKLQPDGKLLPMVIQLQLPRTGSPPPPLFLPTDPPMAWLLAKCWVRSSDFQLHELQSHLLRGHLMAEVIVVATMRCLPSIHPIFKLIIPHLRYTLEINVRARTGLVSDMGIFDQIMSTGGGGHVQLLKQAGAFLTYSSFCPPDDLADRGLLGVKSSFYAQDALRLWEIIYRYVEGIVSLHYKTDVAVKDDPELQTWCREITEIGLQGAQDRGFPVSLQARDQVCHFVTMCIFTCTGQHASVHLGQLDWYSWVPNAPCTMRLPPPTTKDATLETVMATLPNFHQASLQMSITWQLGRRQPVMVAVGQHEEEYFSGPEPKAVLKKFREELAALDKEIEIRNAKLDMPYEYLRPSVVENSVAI
# [2] = molecular target: T2, h15-LOX-2 (Homo sapiens, UniProt O15296); test: Kinetic investigation of oleoyl-CoA (18:1) inhibition of h15-LOX-2; format: biochemical
# T2 construct: His tag; made in house
# T2 sequence (O15296 1-676): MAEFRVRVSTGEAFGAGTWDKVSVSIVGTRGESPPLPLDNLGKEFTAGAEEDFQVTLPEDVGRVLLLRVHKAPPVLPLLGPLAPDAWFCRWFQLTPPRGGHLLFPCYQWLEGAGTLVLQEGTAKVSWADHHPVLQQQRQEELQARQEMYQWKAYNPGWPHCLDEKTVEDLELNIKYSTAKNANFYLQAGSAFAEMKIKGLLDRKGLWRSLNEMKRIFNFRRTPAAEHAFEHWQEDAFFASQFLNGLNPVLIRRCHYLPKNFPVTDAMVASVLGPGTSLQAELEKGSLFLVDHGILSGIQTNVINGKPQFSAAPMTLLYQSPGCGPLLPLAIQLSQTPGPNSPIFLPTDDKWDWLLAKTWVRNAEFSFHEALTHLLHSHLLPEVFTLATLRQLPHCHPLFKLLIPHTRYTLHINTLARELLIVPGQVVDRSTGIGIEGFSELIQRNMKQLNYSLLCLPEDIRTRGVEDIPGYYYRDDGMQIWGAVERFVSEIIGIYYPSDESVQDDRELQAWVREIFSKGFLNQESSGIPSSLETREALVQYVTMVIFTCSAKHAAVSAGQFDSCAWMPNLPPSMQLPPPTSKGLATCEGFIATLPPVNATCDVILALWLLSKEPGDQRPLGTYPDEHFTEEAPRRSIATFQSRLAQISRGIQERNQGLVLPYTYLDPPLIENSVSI
# Method: (1) 1/v=(αKM/kcat)[([I]+Ki)/(β[I]+αKi)]×1/[S]+1/kcat×[([I]+αKi)/(β[I]+αKi)] (2) KM(app)=αKM[([I]+Ki)/[…]] (3) kcat/KM=(kcat/αKM)[(β[I]+αKi)/([I]+Ki)] (4) kcat=kcat[(β[I]+αKi)/([I]+αKi)]
# These two parameters were then utilized to fit Equation (3) relative to kcat/KM (app), which yielded a β value of 0.26 +/− 0.23 (Figure 2). Given the high error for the β value, β was also determined by applying the values for α and Ki from the KM (app) plot to Equation 4 and fitted to the kcat data (Figure 3). This fit yielded a β value of 0.30 +/− 0.07, consistent with the Equation 3 fit but with a lower error value. These kinetic values indicate hyperbolic allostery, α > 1 (K-type inhibition) and β < 1 (V-type inhibition), with the kinetic change being equally observed in both KM (α = 3.2 +/− 1) and kcat (β = 0.30 +/− 0.07). […] It should be noted that the Ki values from our hyperbolic fits (82 +/− 70 nM) were dramatically lower than those determined from IC50 measurements (620 ± 60 nM), which is consistent with the more accurate nature of the hyperbolic fits relative to the IC50 fits, due to the oversimplification of the IC50 analysis.
# The reactions were carried out in 25 mM HEPES buffer (pH 7.5), 0.01% Triton X-100. […] Reactions were performed at 22 °C in a 1 cm^2 quartz cuvette containing 2 mL of the according buffer for no longer than 2 min to avoid any cleavage of the acyl-coenzyme A. Using a Cary-UV Vis spectrophotometer, the fastest rates over 15 s intervals were recorded. Kinetic values were obtained by plotting the rate against the substrate concentration, followed by a hyperbolic saturation curve fit. The saturation curve fits were performed in triplicate and on separate days to ensure there was no bias. The equations used to find kinetic values were from previous studies.
# [3] = h15-LOX-1, compared with published values [31]
Compound,"Km ([1]; as substrate of h15-LOX-1, 22 °C) [µM]","kcat ([1]; as substrate of h15-LOX-1, 22 °C, listed as linoleoyl-CoA)","kcat ([1]; as substrate of h15-LOX-1, 22 °C, listed as linoleoyl-CoA (18:2)) [s⁻¹]","kcat fold less than free linoleic acid [1, 3] [fold]","kcat/KM fold less than free linoleic acid [1, 3] [fold]",Type of inhibition of h15-LOX-2 [2],"β (the change in kcat), Equation 4 fit ([2]; fit of kcat data)","β (the change in kcat), Equation 3 fit ([2]; fit of kcat/KM (app))","Ki ([2]; h15-LOX-2, substrate AA, pH 7.5, 22 °C, read-out: Ki (allosteric, hyperbolic fit of KM (app), Equation 2)) [nM]"
"CCCCC/C=C\C/C=C\CCCCCCCC(=O)SCCNC(=O)CCNC(=O)[C@H](O)C(C)(C)COP(=O)(O)OP(=O)(O)OC[C@H]1O[C@@H](n2cnc3c(N)ncnc32)[C@H](O)[C@@H]1OP(=O)(O)O [Linoleoyl-CoA (18:2), linoleoyl-CoA]",12,7.5 (0.4) s^−1,7.5 ± 0.4,1.3,7,,,,
"CCCCCCCC/C=C\CCCCCCCC(=O)SCCNC(=O)CCNC(=O)[C@H](O)C(C)(C)COP(=O)(O)OP(=O)(O)OC[C@H]1O[C@@H](n2cnc3c(N)ncnc32)[C@H](O)[C@@H]1OP(=O)(O)O [Oleoyl-CoA (18:1), oleoyl-coenzyme A (18:1)]",,,,,,"allosteric inhibition (i.e., partial inhibition)",0.30 +/− 0.07,0.26 +/− 0.23,82
